Assay results from PubChem BioAssay (NCI).
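The compound was tested at five concentrations on cells cultured in 96-well plates, with a 48-hour exposure period. The concentration for 50% growth inhibition is given as GI50. The concentration for full growth arrest is given as TGI.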

What was measured:
Assay in all cases: NCI-60 cell line screen, 48 h
786-0 renal = tested on: 786-0 renal
A498 renal = tested on: A498 renal
A549 NSCLC = tested on: A549 NSCLC
ACHN renal = tested on: ACHN renal
BT-549 breast = tested on: BT-549 breast
CAKI-1 renal = tested on: CAKI-1 renal
CCRF-CEM leukemia = tested on: CCRF-CEM leukemia
COLO 205 colon = tested on: COLO 205 colon
DU-145 prostate = tested on: DU-145 prostate
EKVX NSCLC = tested on: EKVX NSCLC
HCC-2998 colon = tested on: HCC-2998 colon
HCT-116 colon = tested on: HCT-116 colon
HCT-15 colon = tested on: HCT-15 colon
HL-60(TB) leukemia = tested on: HL-60(TB) leukemia
HOP-62 NSCLC = tested on: HOP-62 NSCLC
HOP-92 NSCLC = tested on: HOP-92 NSCLC
HS 578T breast = tested on: HS 578T breast
HT29 colon = tested on: HT29 colon
K-562 leukemia = tested on: K-562 leukemia
KM12 colon = tested on: KM12 colon
LOX IMVI melanoma = tested on: LOX IMVI melanoma
M14 melanoma = tested on: M14 melanoma
MALME-3M melanoma = tested on: MALME-3M melanoma
MCF7 breast = tested on: MCF7 breast
MDA-MB-231 breast = tested on: MDA-MB-231 breast
MDA-MB-435 = tested on: MDA-MB-435
MOLT-4 leukemia = tested on: MOLT-4 leukemia
NCI-H226 lung = tested on: NCI-H226 lung
NCI-H23 lung = tested on: NCI-H23 lung
NCI-H460 lung = tested on: NCI-H460 lung
NCI-H522 lung = tested on: NCI-H522 lung
NCI/ADR-RES ovarian = tested on: NCI/ADR-RES ovarian
OVCAR-3 ovarian = tested on: OVCAR-3 ovarian
OVCAR-4 ovarian = tested on: OVCAR-4 ovarian
OVCAR-5 ovarian = tested on: OVCAR-5 ovarian
OVCAR-8 ovarian = tested on: OVCAR-8 ovarian
PC-3 prostate = tested on: PC-3 prostate
RPMI-8226 leukemia = tested on: RPMI-8226 leukemia
RXF 393 renal = tested on: RXF 393 renal
SF-268 CNS = tested on: SF-268 CNS
SF-295 CNS = tested on: SF-295 CNS
SF-539 CNS = tested on: SF-539 CNS
SK-MEL-2 melanoma = tested on: SK-MEL-2 melanoma
SK-MEL-28 melanoma = tested on: SK-MEL-28 melanoma
SK-MEL-5 melanoma = tested on: SK-MEL-5 melanoma
SN12C renal = tested on: SN12C renal
SNB-75 CNS = tested on: SNB-75 CNS
SR leukemia = tested on: SR leukemia
SW-620 colon = tested on: SW-620 colon
T-47D breast = tested on: T-47D breast
U251 CNS = tested on: U251 CNS
UACC-257 melanoma = tested on: UACC-257 melanoma
UACC-62 melanoma = tested on: UACC-62 melanoma
UO-31 renal = tested on: UO-31 renal

COC(=O)c1c2c(c(C)[n+]([O-])c1C)C(=O)C(NCc1ccc(F)c(F)c1)=CC2=O
GI50 (786-0 renal): 3.17 µM
TGI (786-0 renal): 12.7 µM
GI50 (A498 renal): 1.34 µM
TGI (A498 renal): 5.65 µM
GI50 (A549 NSCLC): 2.1 µM
TGI (A549 NSCLC): 6.17 µM
GI50 (ACHN renal): 2.48 µM
TGI (ACHN renal): 7.68 µM
GI50 (BT-549 breast): 2.14 µM
TGI (BT-549 breast): 5.86 µM
GI50 (CAKI-1 renal): 2.39 µM
TGI (CAKI-1 renal): 10.5 µM
GI50 (CCRF-CEM leukemia): 1.72 µM
TGI (CCRF-CEM leukemia): 4.57 µM
GI50 (COLO 205 colon): 0.673 µM
TGI (COLO 205 colon): 2.1 µM
GI50 (DU-145 prostate): 2.66 µM
TGI (DU-145 prostate): 7.61 µM
GI50 (EKVX NSCLC): 1.84 µM
TGI (EKVX NSCLC): 4.39 µM
GI50 (HCC-2998 colon): 2.26 µM
TGI (HCC-2998 colon): 5.35 µM
GI50 (HCT-116 colon): 1.65 µM
TGI (HCT-116 colon): 5.71 µM
GI50 (HCT-15 colon): 1.6 µM
TGI (HCT-15 colon): 4.02 µM
GI50 (HL-60(TB) leukemia): 1.86 µM
TGI (HL-60(TB) leukemia): 4.4 µM
GI50 (HOP-62 NSCLC): 2.45 µM
TGI (HOP-62 NSCLC): 7.47 µM
GI50 (HOP-92 NSCLC): 2.81 µM
TGI (HOP-92 NSCLC): 6.43 µM
GI50 (HS 578T breast): 2.76 µM
TGI (HS 578T breast): 11.9 µM
GI50 (HT29 colon): 1.15 µM
TGI (HT29 colon): 7.61 µM
GI50 (K-562 leukemia): 2.23 µM
TGI (K-562 leukemia): 9.59 µM
GI50 (KM12 colon): 2.16 µM
TGI (KM12 colon): 8.15 µM
GI50 (LOX IMVI melanoma): 1.98 µM
TGI (LOX IMVI melanoma): 6.76 µM
GI50 (M14 melanoma): 1.64 µM
TGI (M14 melanoma): 3.6 µM
GI50 (MALME-3M melanoma): 0.238 µM
TGI (MALME-3M melanoma): 0.874 µM
GI50 (MCF7 breast): 1.48 µM
TGI (MCF7 breast): 3.36 µM
GI50 (MDA-MB-231 breast): 1.75 µM
TGI (MDA-MB-231 breast): 6.09 µM
GI50 (MDA-MB-435): 1.7 µM
TGI (MDA-MB-435): 3.15 µM
GI50 (MOLT-4 leukemia): 2.44 µM
TGI (MOLT-4 leukemia): 4.86 µM
GI50 (NCI-H226 lung): 2.69 µM
TGI (NCI-H226 lung): 8.14 µM
GI50 (NCI-H23 lung): 1.87 µM
TGI (NCI-H23 lung): 4.52 µM
GI50 (NCI-H460 lung): 2.13 µM
TGI (NCI-H460 lung): 10.2 µM
GI50 (NCI-H522 lung): 1.57 µM
TGI (NCI-H522 lung): 3.75 µM
GI50 (NCI/ADR-RES ovarian): 2.3 µM
TGI (NCI/ADR-RES ovarian): 6.86 µM
GI50 (OVCAR-3 ovarian): 0.333 µM
TGI (OVCAR-3 ovarian): 1.09 µM
GI50 (OVCAR-4 ovarian): 1.03 µM
TGI (OVCAR-4 ovarian): 2.22 µM
GI50 (OVCAR-5 ovarian): 2.5 µM
TGI (OVCAR-5 ovarian): 6.59 µM
GI50 (OVCAR-8 ovarian): 1.96 µM
TGI (OVCAR-8 ovarian): 7.97 µM
GI50 (PC-3 prostate): 1.91 µM
TGI (PC-3 prostate): 7.75 µM
GI50 (RPMI-8226 leukemia): 2.05 µM
TGI (RPMI-8226 leukemia): 5.6 µM
GI50 (RXF 393 renal): 2.15 µM
TGI (RXF 393 renal): 5.96 µM
GI50 (SF-268 CNS): 2.31 µM
TGI (SF-268 CNS): 7.47 µM
GI50 (SF-295 CNS): 1.88 µM
TGI (SF-295 CNS): 4.64 µM
GI50 (SF-539 CNS): 1.92 µM
TGI (SF-539 CNS): 4.12 µM
GI50 (SK-MEL-2 melanoma): 2.16 µM
TGI (SK-MEL-2 melanoma): 6.73 µM
GI50 (SK-MEL-28 melanoma): 4.11 µM
TGI (SK-MEL-28 melanoma): 13.8 µM
GI50 (SK-MEL-5 melanoma): 1.14 µM
TGI (SK-MEL-5 melanoma): 2.38 µM
GI50 (SN12C renal): 1.73 µM
TGI (SN12C renal): 4.32 µM
GI50 (SNB-75 CNS): 2.15 µM
TGI (SNB-75 CNS): 7.58 µM
GI50 (SR leukemia): 1.62 µM
TGI (SR leukemia): 6.24 µM
GI50 (SW-620 colon): 2.17 µM
TGI (SW-620 colon): 6.89 µM
GI50 (T-47D breast): 1.75 µM
TGI (T-47D breast): 4.33 µM
GI50 (U251 CNS): 2.06 µM
TGI (U251 CNS): 5.85 µM
GI50 (UACC-257 melanoma): 1.13 µM
TGI (UACC-257 melanoma): 2.96 µM
GI50 (UACC-62 melanoma): 1.53 µM
TGI (UACC-62 melanoma): 3.35 µM
GI50 (UO-31 renal): 1.94 µM
TGI (UO-31 renal): 6.9 µM
